SMILES strings stand for the structures.

For the assay, the target named is T1, PDE7 (type VII phosphodiesterase) (Homo sapiens, UniProt Q13946).
T1 construct: endogenous in cells; host or cells: MOLT-4 (ATCC CRL-1582), soluble fraction, HiTrapQ anion-exchange fraction
T1 sequence (Q13946 whole entry): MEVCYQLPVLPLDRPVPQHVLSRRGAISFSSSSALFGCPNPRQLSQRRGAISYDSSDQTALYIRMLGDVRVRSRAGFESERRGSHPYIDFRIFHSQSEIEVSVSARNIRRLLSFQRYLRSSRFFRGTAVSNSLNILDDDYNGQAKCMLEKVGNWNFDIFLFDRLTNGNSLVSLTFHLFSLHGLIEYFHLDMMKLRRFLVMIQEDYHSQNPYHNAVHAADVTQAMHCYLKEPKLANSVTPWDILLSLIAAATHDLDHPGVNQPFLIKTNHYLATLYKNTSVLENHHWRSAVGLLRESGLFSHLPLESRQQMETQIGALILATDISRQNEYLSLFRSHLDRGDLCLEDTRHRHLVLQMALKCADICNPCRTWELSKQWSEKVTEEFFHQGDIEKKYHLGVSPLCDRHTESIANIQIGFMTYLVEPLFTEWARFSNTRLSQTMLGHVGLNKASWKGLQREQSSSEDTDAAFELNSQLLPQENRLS
As to the kind of experiment: PDE7 inhibiting activity (3H-cAMP hydrolysis, active fraction from MOLT-4 cells). It counts as biochemical. Conditions: PDE7 fraction from MOLT-4 cells, 0.064 μM cAMP, 10 μM rolipram present, 2 hours at 25° C.; read-out: IC50 values for phosphodiesterase inhibiting activities (PDE7). The essentials:
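Read-out: supernatant radioactivity after twice-repeated QAE-Sephadex treatment of a 2 h, 25° C reaction (3H-cAMP at 0.064 μM cAMP, 10 μM rolipram, 5′-nucleotidase, 1 mM MgCl2, pH 7.5). Enzyme is an anion-exchange-purified fraction from MOLT-4 T cells. IC50 taken as half-maximal inhibition.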
On to `COc1cc(S(=O)(=O)N(C)CCO)ccc1-c1nc2c(c(C3CCCCC3)nn2C)c(=O)[nH]1` [Example 156, 4-(3-Cyclohexyl-1-methyl-4-oxo-4,5-dihydro-1H-pyrazolo[3,4-d]pyrimidin-6-yl)-N-(2-hydroxyethyl)-3-methoxy-N-methylbenzenesulfonamide], for which the IC50 (in general, the concentration that inhibits the measured activity by half) was not above 1000 nM. Turning to `COc1cc(S(=O)(=O)N(C)CCN(C)C)ccc1-c1nc2c(c(C3CCCCC3)nn2C)c(=O)[nH]1` [Example 158, 4-(3-Cyclohexyl-1-methyl-4-oxo-4,5-dihydro-1H-pyrazolo[3,4-d]pyrimidin-6-yl)-N-(2-(dimethylamino)ethyl)-3-methoxy-N-methylbenzenesulfonamide monomethanesulfonate], the IC50 is not above 1000 nM.

For `COc1cc(S(=O)(=O)NCCCO)ccc1-c1nc2c(c(C3CCCCC3)nn2C)c(=O)[nH]1` [Example 159, 4-(3-Cyclohexyl-1-methyl-4-oxo-4,5-dihydro-1H-pyrazolo[3,4-d]pyrimidin-6-yl)-N-(3-hydroxypropyl)-3-methoxybenzenesulfonamide], the half-maximal inhibitory concentration (IC50) was not above 1000 nM.

As to `COc1cc(S(=O)(=O)N2CCCNCC2)ccc1-c1nc2c(c(C3CCCCC3)nn2C)c(=O)[nH]1` [Example 161, 3-Cyclohexyl-6-[4-(1,4-diazepan-1-ylsulfonyl)-2-methoxyphenyl]-1-methyl-1,5-dihydro-4H-pyrazolo[3,4-d]pyrimidin-4-one monomethanesulfonate], the IC50 was not above 1000 nM. For `COc1cc(S(=O)(=O)N2CCCN(C)CC2)ccc1-c1nc2c(c(C3CCCCC3)nn2C)c(=O)[nH]1` [Example 163, 3-Cyclohexyl-6-{2-methoxy-4-[(4-methyl-1,4-diazepan-1-yl)sulfonyl]phenyl}-1-methyl-1,5-dihydro-4H-pyrazolo[3,4-d]pyrimidin-4-one monomethanesulfonate] the value was not above 10 nM; for `COc1cc(S(=O)(=O)N2CCC(O)C2)ccc1-c1nc2c(c(C3CCCCC3)nn2C)c(=O)[nH]1` (stereo not shown) [Example 164, 3-Cyclohexyl-6-{4-[(3-hydroxy-1-pyrrolidinyl)sulfonyl]-2-methoxyphenyl}-1-methyl-1,5-dihydro-4H-pyrazolo[3,4-d]pyrimidin-4-one], not above 1000 nM; for `COc1cc(S(=O)(=O)N2CCSCC2)ccc1-c1nc2c(c(C3CCCCC3)nn2C)c(=O)[nH]1` [Example 165, 3-Cyclohexyl-6-[2-methoxy-4-(4-thiomorpholinylsulfonyl)phenyl]-1-methyl-1,5-dihydro-4H-pyrazolo[3,4-d]pyrimidin-4-one], not above 1000 nM. For `CNC1CCN(S(=O)(=O)c2ccc(-c3nc4c(c(C5CCCCC5)nn4C)c(=O)[nH]3)c(OC)c2)CC1` [Example 169, 3-Cyclohexyl-6-(2-methoxy-4-{[4-(methylamino)-1-piperidinyl]sulfonyl}phenyl)-1-methyl-1,5-dihydro-4H-pyrazolo[3,4-d]pyrimidin-4-one monomethanesulfonate] the value was not above 1000 nM; for `COc1cc(S(=O)(=O)N2CCC(N)C2)ccc1-c1nc2c(c(C3CCCCC3)nn2C)c(=O)[nH]1` (stereo not shown) [Example 172, 6-{4-[(3-Amino-1-pyrrolidinyl)sulfonyl]-2-methoxyphenyl}-3-cyclohexyl-1-methyl-1,5-dihydro-4H-pyrazolo[3,4-d]pyrimidin-4-one monomethanesulfonate], not above 1000 nM; for `COc1cc(S(=O)(=O)N2CCC(N)CC2)ccc1-c1nc2c(c(C3CCCCC3)nn2C)c(=O)[nH]1` [Example 175, 6-{4-[(4-Amino-1-piperidinyl)sulfonyl]-2-methoxyphenyl}-3-cyclohexyl-1-methyl-1,5-dihydro-4H-pyrazolo[3,4-d]pyrimidin-4-one monomethanesulfonate], not above 1000 nM.

As for `COc1cc(N2CCSCC2)ccc1-c1nc2c(c(C3CCCCC3)nn2C)c(=O)[nH]1` [Example 176, 3-Cyclohexyl-6-[2-methoxy-4-(4-thiomorpholinyl)phenyl]-1-methyl-1,5-dihydro-4H-pyrazolo[3,4-d]pyrimidin-4-one], the IC50 is not above 1000 nM. Regarding `CN1CCN(c2ccc(-c3nc4c(c(C5CCCCC5)nn4C)c(=O)[nH]3)cc2)CC1` [Example 179, 3-Cyclohexyl-1-methyl-6-[4-(4-methyl-1-piperazinyl)phenyl]-1,5-dihydro-4H-pyrazolo[3,4-d]pyrimidin-4-one monomethanesulfonate], the IC50 was not above 1000 nM. On to `COc1cc(N2CCC(N)CC2)ccc1-c1nc2c(c(C3CCCCC3)nn2C)c(=O)[nH]1` [Example 185, 6-[4-(4-Amino-1-piperidinyl)-2-methoxyphenyl]-3-cyclohexyl-1-methyl-1,5-dihydro-4H-pyrazolo[3,4-d]pyrimidin-4-one monomethanesulfonate], for which the IC50 is not above 10 nM.

As to `CNC1CCN(c2ccc(-c3nc4c(c(C5CCCCC5)nn4C)c(=O)[nH]3)cc2)CC1` [Example 189, 3-Cyclohexyl-1-methyl-6-{4-[4-(methylamino)-1-piperidinyl]phenyl}-1,5-dihydro-4H-pyrazolo[3,4-d]pyrimidin-4-one monomethanesulfonate], the IC50 was not above 1000 nM. Consider `COc1cc(S(=O)(=O)N2CCS(=O)(=O)CC2)ccc1-c1nc2c(c(C3CCCCC3)nn2C)c(=O)[nH]1` [Example 191, 3-Cyclohexyl-6-{4-[(1,1-dioxido-4-thiomorpholinyl)sulfonyl]-2-methoxyphenyl}-1-methyl-1,5-dihydro-4H-pyrazolo[3,4-d]pyrimidin-4-one], for which the IC50 is not above 1000 nM. For `COc1cc(N2CCS(=O)(=O)CC2)ccc1-c1nc2c(c(C3CCCCC3)nn2C)c(=O)[nH]1` [Example 192, 3-Cyclohexyl-6-[4-(1,1-dioxido-4-thiomorpholinyl)-2-methoxyphenyl]-1-methyl-1,5-dihydro-4H-pyrazolo[3,4-d]pyrimidin-4-one] the value was not above 10 nM; for `CCn1nc(C2CCCCC2)c2c(=O)[nH]c(-c3ccc(N4CCN(C)CC4)cc3OC)nc21` [Example 194, 3-Cyclohexyl-1-ethyl-6-[2-methoxy-4-(4-methyl-1-piperazinyl)phenyl]-1,5-dihydro-4H-pyrazolo[3,4-d]pyrimidin-4-one], not above 1000 nM. For the compound `CCn1nc(C2CCCCC2)c2c(=O)[nH]c(-c3ccc(N4CCC(NC)CC4)cc3OC)nc21` [Example 196], the IC50 was not above 1000 nM. To `COc1cc(S(=O)(=O)N2CCCN(C)CC2)ccc1-c1nc2c(C)nn(C3CCCCC3)c2c(=O)[nH]1` [Example 198, 1-Cyclohexyl-5-{2-methoxy-4-[(4-methyl-1,4-diazepan-1-yl)sulfonyl]phenyl}-3-methyl-1,6-dihydro-7H-pyrazolo[4,3-d]pyrimidin-7-one] belongs not above 1000 nM. For `COc1cc(S(=O)(=O)N2CCC(O)CC2)ccc1-c1nc2c(C)nn(C3CCCCC3)c2c(=O)[nH]1` [Example 199, 1-Cyclohexyl-5-{4-[(4-hydroxy-1-piperidinyl)sulfonyl]-2-methoxyphenyl}-3-methyl-1,6-dihydro-7H-pyrazolo[4,3-d]pyrimidin-7-one] the value was not above 1000 nM; for `COc1cc(S(=O)(=O)NCCO)ccc1-c1nc2c(C)nn(C3CCCCC3)c2c(=O)[nH]1` [Example 200, 4-(1-Cyclohexyl-3-methyl-7-oxo-6,7-dihydro-1H-pyrazolo[4,3-d]pyrimidin-5-yl)-N-(2-hydroxyethyl)-3-methoxybenzenesulfonamide], not above 1000 nM; for `CNS(=O)(=O)c1ccc(-c2nc3c(C)nn(C4CCCCC4)c3c(=O)[nH]2)c(OC)c1` [Example 201, 4-(1-Cyclohexyl-3-methyl-7-oxo-6,7-dihydro-1H-pyrazolo[4,3-d]pyrimidin-5-yl)-3-methoxy-N-methylbenzenesulfonamide], not above 1000 nM. For `COc1cc(S(=O)(=O)N2CCCNCC2)ccc1-c1nc2c(C)nn(C3CCCCC3)c2c(=O)[nH]1` [Example 203, 1-Cyclohexyl-5-[4-(1,4-diazepan-1-ylsulfonyl)-2-methoxyphenyl]-3-methyl-1,6-dihydro-7H-pyrazolo[4,3-d]pyrimidin-7-one monomethanesulfonate] the value was not above 1000 nM; for `CNS(=O)(=O)c1ccc(-c2nc3c(c(C4CCCCC4)nn3C)c(=O)[nH]2)c(OC)c1` [Example 204, 4-(3-Cyclohexyl-1-methyl-4-oxo-4,5-dihydro-1H-pyrazolo[3,4-d]pyrimidin-6-yl)-3-methoxy-N-methylbenzenesulfonamide], not above 1000 nM; for `CCn1nc(C2CCCCC2)c2c(=O)[nH]c(-c3ccc(S(=O)(=O)N4CCC(O)CC4)cc3OC)nc21` [Example 207, 3-Cyclohexyl-1-ethyl-6-{4-[(4-hydroxy-1-piperidinyl)sulfonyl]-2-methoxyphenyl}-1,5-dihydro-4H-pyrazolo[3,4-d]pyrimidin-4-one], not above 1000 nM. With `CCn1nc(C2CCCCC2)c2c(=O)[nH]c(-c3ccc(S(=O)(=O)N4CCCN(C)CC4)cc3OC)nc21` [Example 208, 3-Cyclohexyl-1-ethyl-6-{2-methoxy-4-[(4-methyl-1,4-diazepan-1-yl)sulfonyl]phenyl}-1,5-dihydro-4H-pyrazolo[3,4-d]pyrimidin-4-one], the IC50 is not above 1000 nM. To `CCn1nc(C2CCCCC2)c2c(=O)[nH]c(-c3ccc(S(=O)(=O)N4CCCNCC4)cc3OC)nc21` [Example 209, 3-Cyclohexyl-6-[4-(1,4-diazepan-1-ylsulfonyl)-2-methoxyphenyl]-1-ethyl-1,5-dihydro-4H-pyrazolo[3,4-d]pyrimidin-4-one] belongs not above 1000 nM; to `COc1cc(S(=O)(=O)N(C)CCN)ccc1-c1nc2c(C)nn(C3CCCCC3)c2c(=O)[nH]1` [Example 210-1, N-(2-aminoethyl)-4-(1-cyclohexyl-3-methyl-7-oxo-6,7-dihydro-1H-pyrazolo[4,3-d]pyrimidin-5-yl)-3-methoxy-N-methylbenzenesulfonamide], not above 1000 nM.

(Values after patent US7268128B2, “1,3,5-trisubstituted-5-phenyl and 5-pyridyl pyrazolopyrimidinone derivatives having PDE7 inhibiting action” (Ausbio Pharma Co., Ltd., priority 2001, dated 2007).)
